Measurements: a compilation of properties of binary mixtures (doi:10.3866/pku.whxb202001015)

Assay: xn = mol fraction of the nth substance listed
Details: 293.15 K, 101.3 kPa

Work on `CC(=O)[O-].Cn1cc[nH+]c1` + CCO yielded an electrical conductivity (x2 = 0.0616) of 0.449 S/m, an electrical conductivity (x2 = 0.0975) of 0.527 S/m and an electrical conductivity (x2 = 0.2701) of 0.821 S/m. It also gave an electrical conductivity (x2 = 0.3985) of 1.33 S/m, an electrical conductivity (x2 = 0.4978) of 1.7 S/m and an electrical conductivity (x2 = 0.6604) of 2.27 S/m. The electrical conductivity (x2 = 0.7397) was 2.34 S/m, the electrical conductivity (x2 = 0.7865) was 1.92 S/m and the electrical conductivity (x2 = 0.8291) was 1.52 S/m. For the same compound, the electrical conductivity (x2 = 0.8486) was 1.31 S/m, the electrical conductivity (x2 = 0.9522) was 0.312 S/m and the electrical conductivity (x2 = 0.9648) was 0.199 S/m. It also gave an electrical conductivity (x2 = 0.9725) of 0.139 S/m.

Compound `CC(=O)[O-].Cn1cc[nH+]c1` + O has an electrical conductivity (x2 = 0) of 0.326 S/m, an electrical conductivity (x2 = 0.2845) of 2.06 S/m and an electrical conductivity (x2 = 0.4277) of 3.44 S/m. For the same compound, the electrical conductivity (x2 = 0.5098) was 4.31 S/m, the electrical conductivity (x2 = 0.6959) was 6.95 S/m and the electrical conductivity (x2 = 0.8691) was 9.7 S/m. The electrical conductivity (x2 = 0.8823) was 8.7 S/m, the electrical conductivity (x2 = 0.9207) was 5.18 S/m and the electrical conductivity (x2 = 0.9425) was 2.9 S/m. It also gave an electrical conductivity (x2 = 0.9559) of 1.7 S/m and an electrical conductivity (x2 = 0.9677) of 0.849 S/m.
